Values quoted from earlier work, collected in publication PMC11505029, “Isatin Bis-Imidathiazole Hybrids Identified as FtsZ Inhibitors with On-Target Activity Against Staphylococcus aureus” (Antibiotics, 2024).

Tests used:
Parameters in all cases: method as in PMID 36144518
[1] = system: Vero cell line (ATCC CCL-81); conditions: 100 μM; mean ± SD; cited from earlier work
[2] = system: C. albicans ATCC 10231; conditions: 100 μM; mean ± SD; cited from earlier work
[3] = system: S. aureus ATCC 25923; conditions: cited from earlier work
[4] = system: E. coli ATCC 25922; conditions: 100 μM; mean ± SD; cited from earlier work

In the case of `COc1ccc2c(c1)C(c1c(Cl)nc3sccn13)(c1c(Cl)nc3sccn13)C(=O)N2` [Compound 6k], the “Cell proliferation, Vero” value [1] is listed as 70.9 ± 5.6%, the “Microbial growth, C. albicans” value [2] is listed as 104.1 ± 1.9% and the “Microbial growth, S. aureus” value ([3]; 100 μM, mean ± SD) is listed as 43.4 ± 5.6%. The IC50 ([3]; S. aureus, lead compounds) was 80 µM and the “Microbial growth, E. coli” value [4] was 102.7 ± 2.4%.
